The record followed here is patent publication US20090005338A1, “Carbonyl-substituted titanocenes” (Charite - Universitatsmedizin Berlin, priority 2006, published 2009).

In one series the test system is human lymphoma cells. Conditions: SCID mice, microcrystalline suspension p.o., 5×50 mg/kg body weight per week over 2 weeks from day 14; Mann-Whitney U test p<0.05. How it is done: The mean values of the tumor volumes (*=significance) with standard deviations as a function of therapy duration (application of (2) from day 14 with 5×50 mg/kg body weight per week p.o. over 2 weeks) are shown.

Series [1] relates to BJAB cells. Conditions: 75 μM, 72 h.
Series [2] deals with primary lymphoblasts from an ALL patient. Kind of series: Apoptosis induction in primary lymphoblasts ex vivo (DNA fragmentation, propidium iodide, FACS). The format is cell-based, human. The note with it: 60 h, concentration in the range of LD50 in the BLAB cell line; for apoptosis induction in primary lymphoblasts (in words): therapy-resistant leukemia cells. How it is done:
The concentrations employed were selected to always be within the respective range of LD50 when the BLAB cell line was used. Thereafter, the cells were incubated at 37° C. and 5% CO2 for 60 hours, followed by staining with propidium iodide and quantifying by flow cytometry in FACS (Prokop et al., 2003).
The incubation was effected at 37° C. and 5% CO2 for 60 h. Apoptosis induction was measured as DNA fragmentation by flow cytometry after propidium iodide staining.

For series [3], the system named is BJAB cells. The note with it: 48 h, concentration-dependent.
Description: After treatment of the cells with different concentrations of a titanocene including a zero control and a solvent control (DMSO), the cells are incubated at 37° C. and 5% CO2 for 48 hours.
The incubation was effected at 37° C. and 5% CO2 for 48 h including zero and solvent controls, followed by staining the cells with the mitochondria-specific stain JC-1 and detection of the color change and thus the change of the mitochondrial membrane potential by flow cytometry.
In a further series the test system is BLAB cells. Conditions: 3 h incubation, highest concentration.
In series [4] the test system is BJAB cells (Burkitt lymphoma cell line). The series can be described thus: Apoptosis induction detected as DNA fragmentation by flow cytometry (FACS) after propidium iodide staining. The note with it: 72 h. In kind it is cell-based. How it is done:
Within the scope of apoptotic cell death, the cell is dismantled proteolytically by caspases from inside. Thereupon, the DNA is also fragmented, inter alia. This DNA fragmentation, which is specific for apoptosis, is considered a proof of apoptosis induction and is detected by means of flow cytometry on the single cell level.
BJAB cells (Burkitt lymphoma cell line) in different concentrations were treated with a titanocene derivative and incubated at 37° C. and 5% CO2 for 72 hours. A control (untreated cell suspension) and a solvent control with dimethyl sulfoxide (DMSO) were continuously included. After incubation for 72 hours, apoptosis induction was detected by flow cytometry (FACS) through DNA fragmentation with propidium iodide (Eβmann, 2000).
FIG. 1: BLAB mock cells (1×10^5/ml) were treated with increasing concentrations of the titanocene derivative 4-[1-(dichlorotitanocenyl)]-4-methylbutyric acid n-octylamide (2) and incubated at 37° C. and 5% CO2 for 72 h. After propidium iodide staining, the DNA fragments were detected by flow cytometry (FACS analysis). Ko (untreated cell suspension) and DMSO (solvent control) were included with equivalent treatment.
Since the activity of the cytostatic agents develops in the malignant cells through a specific apoptosis induction, it is reasonable to measure this effect and thus the selectivity of our compounds rather than stating, as usual, the non-specific cytotoxicity described by the LC50 values. Therefore, for examining the structure-effect relationship of our titanocenes, we have established the concentration (AC50) at which a specific apoptosis is induced in […] of the lymphoma cells.
For determining this value, lymphoma cells (10^5/ml BJAB cells) were incubated in different concentrations with (21) at 5% CO2 and 37° C. for 72 h. After staining with propidium iodide, the DNA fragmentation was detected by flow cytometry by means of a FACS analysis.
On the technique in general: A flow cytometer gives signals particle by particle.

For series [5] the following is noted: SCID mice, oral therapy 50 mg/kg body weight.
The test system of another series is lymphoma cells (BLAB). The note with it: various concentrations, 72 h.

Description for BLAB cells: A non-specific cytotoxic effect of the titanocenes via necrosis could be excluded by measuring the extracellular lactate dehydrogenase (LDH) release by ELISA reader detection after incubation for 3 h.
Description for lymphoma cells (BLAB): Lymphoma cells (BLAB) were treated with the carbonyl-substituted titanocene (2), the conventional nucleoside analogue cytarabin (AraC), which is used in the therapy of malignant diseases, and with the combination of (2) and AraC in various concentrations for 72 h. The apoptosis induction was examined by flow cytometry by measuring the DNA fragmentation after staining the cells with propidium iodide. The measured values of three independent examinations are shown, wherein the error bars show the standard deviations from the mean.

Regarding “4-[1-(dichlorotitanocenyl)]-4-methylbutyric acid n-octylamide [Complex (2)]”, in the series on human lymphoma cells, the “growth of human lymphoma cells (tumor volume)” value is listed as “significantly inhibited”. The cell morphology result with BJAB cells [1] is “significant swelling and “blebbing” that is characteristic of apoptosis”. Also, the “apoptosis induction, proportion of leukemia cells ex vivo” value in series [2] was “about 60%”. Further, the “proportion of cells with changed mitochondrial membrane potential (ΔΨm)” value in the series with BJAB cells [3] is recorded as “more than 70%”. In addition, the “viability of the cell population (LDH release)” value with BLAB cells was “above 94%”. Besides, the “apoptosis induced, proportion of BJAB cells” value in series [4] (100 μM) was “about 840%”. The AC50 in series [4] (BJAB cell line, 37° C., 5% CO2, read-out: AC50 (concentration at which a specific apoptosis is induced in 500% of the lymphoma cells)) was determined as 55 µM. In addition, the “concentration-dependent apoptosis induction (proportion of apoptotic cells in the total population)” value in series [4] (BJAB, highest effect over the concentrations tested) is on record as “up to 80%”. Moreover, in series [5], the tolerability entry is reported as “good tolerability”. For the same compound, the “effect of the combination with AraC on apoptosis induction” value in the series with lymphoma cells (BLAB) is given as “significant synergistic effect”.

As for `Nc1ccn([C@@H]2O[C@H](CO)[C@@H](O)[C@@H]2O)c(=O)n1` [cytarabin], in series [2], the “apoptosis induction in primary lymphoblasts (in words)” value (“apoptosis induction … (in words)” for short) is listed as “did not induce any significant apoptosis”.

Consider `COc1cccc2c1C(=O)c1c(O)c3c(c(O)c1C2=O)C[C@@](O)(C(C)=O)C[C@@H]3O[C@H]1C[C@H](N)[C@H](O)[C@H](C)O1` [daunorubicin], for which, in series [2], the “apoptosis induction … (in words)” value is recorded as “did not induce any significant apoptosis”.

Consider `COc1cccc2c1C(=O)c1c(O)c3c(c(O)c1C2=O)C[C@@](O)(C(=O)CO)C[C@@H]3O[C@H]1C[C@H](N)[C@H](O)[C@H](C)O1` [doxorubicin], for which, in series [2], the “apoptosis induction … (in words)” value was “did not induce any significant apoptosis”.

As for `COc1cccc2c1C(=O)c1c(O)c3c(c(O)c1C2=O)C[C@@](O)(C(=O)CO)C[C@@H]3O[C@H]1C[C@H](N)[C@@H](O)[C@H](C)O1` [epirubicin], the “apoptosis induction … (in words)” value in series [2] was “did not induce any significant apoptosis”.

For the compound `CC(=O)[C@]1(O)Cc2c(O)c3c(c(O)c2[C@@H](O[C@H]2C[C@H](N)[C@H](O)[C@H](C)O2)C1)C(=O)c1ccccc1C3=O` [idarubicin], the “apoptosis induction … (in words)” value in series [2] is “did not induce any significant apoptosis”.

For the compound `CC[C@]1(O)C[C@H]2CN(CCc3c([nH]c4ccccc34)[C@@](C(=O)OC)(c3cc4c(cc3OC)N(C=O)[C@H]3[C@@](O)(C(=O)OC)[C@H](OC(C)=O)[C@]5(CC)C=CCN6CC[C@]43[C@@H]65)C2)C1` [vincristin], the “apoptosis induction … (in words)” value in series [2] is on record as “did not induce any significant apoptosis”.
